In ChEMBL document CHEMBL1124402, “Potent angiotensin II antagonists with non-beta-branched amino acids in position 5” (1989):
Numbered stars: 1 amine (or outer) side, 2 acyl side, 3 side chain; on linkers, the order of the positions; unused ones are H or OH. Square brackets hold non-standard residues; d marks the D form. Peptide text beside a SMILES is read from it. X1 = CC(c1ccccc1)[C@H](N[*:1])C(=O)[*:2]; Thz(5,5-Me2) = CC1(C)SCN[C@@H]1C(=O)O; dThz(5,5-Me2) = CC1(C)SCN[C@H]1C(=O)O; Gly(cPent) = N[C@H](C(=O)O)C1CCCC1; hPhe = N[C@@H](CCc1ccccc1)C(=O)O; Chg = N[C@H](C(=O)O)C1CCCCC1; Pen = CC(C)(S)[C@H](N)C(=O)O; Nle = CCCC[C@H](N)C(=O)O; Abu = CC[C@H](N)C(=O)O; Sar = CNCC(=O)O

How the values were obtained:
Oryctolagus cuniculus [1] = organism: Oryctolagus cuniculus; test: In vitro antagonist activity was measured in rabbit aorta assay as pA2
Rattus norvegicus [2] = test: In vivo antagonistic activity was measured in the rat blood pressure assay; assay type: functional
Rattus norvegicus [3] = test: In vivo angiotensin II like activity determined in rat blood pressure assay measured as increase in BP by 1 ug iv of compound; assay type: functional
Rattus norvegicus [4] = test: (§1) In vivo angiotensin II like activity expressed in rat blood pressure assay measured as increase in BP by 1 ug bolus intravenous injection of compound; assay type: functional
[5] = target: Type-1 angiotensin II receptor (Oryctolagus cuniculus) (UniProt P34976); test: In vitro antagonist activity of compound towards angiotensin II like was measured in rabbit aorta assay; conditions: target entry is the homologue from another species
Rattus norvegicus [6] = test: In vivo inhibitory activity against Residual angiotensin II in the rat blood pressure; assay type: functional
Oryctolagus cuniculus [7] = organism: Oryctolagus cuniculus; test: In vitro antagonist activity of compound towards angiotensin II like was measured in rabbit aorta assay; assay type: functional
[8] = target: T1, Type-2 angiotensin II receptor (Rattus norvegicus) (UniProt P35351); test: as §1; assay type: functional, organism-based
T1 sequence (whole entry): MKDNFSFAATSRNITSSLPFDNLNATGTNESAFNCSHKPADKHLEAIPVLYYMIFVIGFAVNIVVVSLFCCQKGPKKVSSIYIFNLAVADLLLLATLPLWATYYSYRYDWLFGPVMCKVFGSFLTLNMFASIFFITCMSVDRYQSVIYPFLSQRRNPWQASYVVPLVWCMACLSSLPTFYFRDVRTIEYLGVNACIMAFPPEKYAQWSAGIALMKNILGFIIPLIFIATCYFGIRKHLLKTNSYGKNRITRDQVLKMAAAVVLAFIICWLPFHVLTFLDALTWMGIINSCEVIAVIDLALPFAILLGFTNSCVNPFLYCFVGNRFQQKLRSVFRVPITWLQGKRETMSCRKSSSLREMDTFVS

Rattus norvegicus [9] = test: In vivo residual angiotensin II like activity in an rat blood pressure assay; assay type: functional; design: concentration or dose not given beside the values
[10] = target: Type-1 angiotensin II receptor (Oryctolagus cuniculus) (UniProt P34976); test: In vitro antagonist activity of compound towards angiotensin II like was measured in a rabbit aorta assay; conditions: target entry is the homologue from another species
Oryctolagus cuniculus [11] = organism: Oryctolagus cuniculus; test: pA2 value was evaluated in rabbit aorta assay; assay type: functional
Rattus norvegicus [12] = test: In vivo residual angiotensin II like activity in rat blood pressure assay; assay type: functional

Sequence of Type-1 angiotensin II receptor (Oryctolagus cuniculus) (P34976 whole entry, looked up): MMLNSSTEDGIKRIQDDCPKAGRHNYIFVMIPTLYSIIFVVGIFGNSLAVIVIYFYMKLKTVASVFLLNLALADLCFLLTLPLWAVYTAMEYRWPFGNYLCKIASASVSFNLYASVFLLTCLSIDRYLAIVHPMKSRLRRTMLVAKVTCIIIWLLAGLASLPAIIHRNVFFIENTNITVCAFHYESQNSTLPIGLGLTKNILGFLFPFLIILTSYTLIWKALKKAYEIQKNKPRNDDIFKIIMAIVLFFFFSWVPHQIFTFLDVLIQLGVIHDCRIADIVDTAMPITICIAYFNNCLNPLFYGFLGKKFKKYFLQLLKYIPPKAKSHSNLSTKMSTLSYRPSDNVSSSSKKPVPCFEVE

Molecule | ID50 (Rattus norvegicus [2]) | BP (Rattus norvegicus [3]) | Activity (Rattus norvegicus [9]) | also measured
CC[C@H](C)[C@H](NC(=O)[C@@H]1CCCN1C(=O)[C@H](Cc1c[nH]cn1)NC(=O)[C@H](Cc1c[nH]c2ccccc12)NC(=O)[C@H](Cc1ccc(O)cc1)NC(=O)[C@@H](NC(=O)[C@H](CCCN=C(N)N)NC(=O)CNC)C(C)C)C(=O)O | 50 ng min-1 rat-1 | 7.5 mmHg | – | pA2 (Oryctolagus cuniculus [1]): 7.25
CC[C@H](C)[C@H](NC(=O)[C@@H]1CCCN1C(=O)[C@H](Cc1c[nH]cn1)NC(=O)[C@H](Cc1c[nH]cn1)NC(=O)[C@H](Cc1ccc(O)cc1)NC(=O)[C@@H](NC(=O)[C@H](CCCN=C(N)N)NC(=O)CNC)C(C)C)C(=O)O | 5 ng min-1 rat-1 | 10 mmHg | – | pA2 (Oryctolagus cuniculus [1]): 9
CC[C@H](C)[C@H](NC(=O)[C@@H]1CCCN1C(=O)[C@H](Cc1c[nH]cn1)NC(=O)[C@H](Cc1ccc(O)cc1)NC(=O)[C@H](Cc1ccc(O)cc1)NC(=O)[C@@H](NC(=O)[C@H](CCCN=C(N)N)NC(=O)CNC)C(C)C)C(=O)O | 50 ng min-1 rat-1 | 2.5 mmHg | – | pA2 (Oryctolagus cuniculus [1]): 9.6
CC[C@H](C)[C@H](NC(=O)[C@@H]1CCCN1C(=O)[C@H](Cc1c[nH]cn1)NC(=O)[C@H](NC(=O)[C@H](Cc1ccc(O)cc1)NC(=O)[C@@H](NC(=O)[C@H](CCCN=C(N)N)NC(=O)CNC)C(C)C)c1ccccc1)C(=O)O | 5.5 ng min-1 rat-1 | 8.5 mmHg | – | pA2 (Oryctolagus cuniculus [1]): 9
CC[C@H](C)[C@H](NC(=O)[C@@H]1CCCN1C(=O)[C@H](Cc1c[nH]cn1)NC(=O)[C@H](CCC(=O)O)NC(=O)[C@H](Cc1ccc(O)cc1)NC(=O)[C@@H](NC(=O)[C@H](CCCN=C(N)N)NC(=O)CNC)C(C)C)C(=O)O | 100 ng min-1 rat-1 | – | – | BP (Rattus norvegicus [4]): 2 mmHg; pA2 [5]: 9
CC[C@H](C)[C@H](NC(=O)[C@@H]1CCCN1C(=O)[C@H](Cc1c[nH]cn1)NC(=O)[C@@H](NC(=O)[C@H](Cc1ccc(O)cc1)NC(=O)[C@@H](NC(=O)[C@H](CCCN=C(N)N)NC(=O)CNC)C(C)C)[C@@H](C)CC)C(=O)O | – | – | – | ID50 (Rattus norvegicus [6]): 10 ng min-1 rat-1; pA2 (Oryctolagus cuniculus [7]): 9.1; BP [8]: 10.2 mmHg
CO[C@H](C)[C@H](NC(=O)[C@H](Cc1ccc(O)cc1)NC(=O)[C@@H](NC(=O)[C@H](CCCN=C(N)N)NC(=O)[C@@H](N)CC(N)=O)C(C)C)C(=O)N[C@@H](Cc1c[nH]cn1)C(=O)N1CCC[C@H]1C(=O)N[C@@H](Cc1ccccc1)C(=O)O (H-NRVYT(Me)HPF-OH) | – | – | 118% | –
CC[C@H](NC(=O)[C@H](Cc1ccc(O)cc1)NC(=O)[C@@H](NC(=O)[C@H](CCCN=C(N)N)NC(=O)[C@@H](N)CC(N)=O)C(C)C)C(=O)N[C@@H](Cc1c[nH]cn1)C(=O)N1CCC[C@H]1C(=O)N[C@@H](Cc1ccccc1)C(=O)O (H-NRVY[Abu]HPF-OH) | – | – | 16% | –
CC(C)[C@H](NC(=O)[C@H](CCCN=C(N)N)NC(=O)[C@@H](N)CC(N)=O)C(=O)N[C@@H](Cc1ccc(O)cc1)C(=O)N[C@H](C(=O)N[C@@H](Cc1c[nH]cn1)C(=O)N1CCC[C@H]1C(=O)N[C@@H](Cc1ccccc1)C(=O)O)C1CCCCC1 (H-NRVY[Chg]HPF-OH) | – | – | 114% | –
CC(C)[C@H](NC(=O)[C@H](CCCN=C(N)N)NC(=O)[C@@H](N)CC(N)=O)C(=O)N[C@@H](Cc1ccc(O)cc1)C(=O)N[C@H](C(=O)N[C@@H](Cc1c[nH]cn1)C(=O)N1CCC[C@H]1C(=O)N[C@@H](Cc1ccccc1)C(=O)O)C1CCCC1 (H-NRVY[Gly(cPent)]HPF-OH) | – | – | 89% | –
CCCC[C@H](NC(=O)[C@H](Cc1ccc(O)cc1)NC(=O)[C@@H](NC(=O)[C@H](CCCN=C(N)N)NC(=O)[C@@H](N)CC(N)=O)C(C)C)C(=O)N[C@@H](Cc1c[nH]cn1)C(=O)N1CCC[C@H]1C(=O)N[C@@H](Cc1ccccc1)C(=O)O (H-NRVY[Nle]HPF-OH) | – | – | 21% | –
CC[C@H](C)[C@H](NC(=O)[C@@H]1CCCN1C(=O)[C@H](Cc1c[nH]cn1)NC(=O)[C@H](C)NC(=O)[C@H](Cc1ccc(O)cc1)NC(=O)[C@@H](NC(=O)[C@H](CCCN=C(N)N)NC(=O)CNC)C(C)C)C(=O)O (H-[Sar]RVYAHPI-OH) | 50 ng min-1 rat-1 | – | – | BP (Rattus norvegicus [4]): 5 mmHg; pA2 [10]: 7.5
CC[C@H](C)[C@H](NC(=O)[C@@H]1CCCN1C(=O)[C@H](Cc1c[nH]cn1)NC(=O)[C@H](Cc1ccccc1)NC(=O)[C@H](Cc1ccc(O)cc1)NC(=O)[C@@H](NC(=O)[C@H](CCCN=C(N)N)NC(=O)CNC)C(C)C)C(=O)O (H-[Sar]RVYFHPI-OH) | 100 ng min-1 rat-1 | 7.5 mmHg | – | pA2 (Oryctolagus cuniculus [1]): 9.15
CC[C@H](C)[C@H](NC(=O)[C@@H]1CCCN1C(=O)[C@H](Cc1c[nH]cn1)NC(=O)[C@H](CCCCN)NC(=O)[C@H](Cc1ccc(O)cc1)NC(=O)[C@@H](NC(=O)[C@H](CCCN=C(N)N)NC(=O)CNC)C(C)C)C(=O)O (H-[Sar]RVYKHPI-OH) | 50 ng min-1 rat-1 | – | – | BP (Rattus norvegicus [4]): 10 mmHg; pA2 [5]: 8.7
CC[C@H](C)[C@H](NC(=O)[C@@H]1CCCN1C(=O)[C@H](Cc1c[nH]cn1)NC(=O)[C@@H]1CCCN1C(=O)[C@H](Cc1ccc(O)cc1)NC(=O)[C@@H](NC(=O)[C@H](CCCN=C(N)N)NC(=O)CNC)C(C)C)C(=O)O (H-[Sar]RVYPHPI-OH) | – | – | – | BP (Rattus norvegicus [4]): 7 mmHg; pA2 (Oryctolagus cuniculus [7]): 8.7
CC[C@H](C)[C@H](NC(=O)[C@@H]1CCCN1C(=O)[C@H](Cc1c[nH]cn1)NC(=O)[C@H](CCCN=C(N)N)NC(=O)[C@H](Cc1ccc(O)cc1)NC(=O)[C@@H](NC(=O)[C@H](CCCN=C(N)N)NC(=O)CNC)C(C)C)C(=O)O (H-[Sar]RVYRHPI-OH) | 15 ng min-1 rat-1 | 10 mmHg | – | pA2 (Oryctolagus cuniculus [1]): 9
CC[C@H](C)[C@H](NC(=O)[C@@H]1CCCN1C(=O)[C@H](Cc1c[nH]cn1)NC(=O)[C@@H](NC(=O)[C@H](Cc1ccc(O)cc1)NC(=O)[C@@H](NC(=O)[C@H](CCCN=C(N)N)NC(=O)CNC)C(C)C)[C@@H](C)OC)C(=O)O (H-[Sar]RVYT(Me)HPI-OH) | – | – | – | BP (Rattus norvegicus [4]): 7.5 mmHg; pA2 (Oryctolagus cuniculus [11]): 9.7
CCCC[C@H](NC(=O)[C@H](Cc1ccc(O)cc1)NC(=O)[C@@H](NC(=O)[C@H](CCCN=C(N)N)NC(=O)CNC)C(C)C)C(=O)N[C@@H](Cc1c[nH]cn1)C(=O)N1CCC[C@H]1C(=O)N[C@H](C(=O)O)[C@@H](C)CC (H-[Sar]RVY[Nle]HPI-OH) | 20 ng min-1 rat-1 | – | – | BP (Rattus norvegicus [4]): 20 mmHg; pA2 [5]: 8.85
CNCC(=O)N[C@@H](CCCN=C(N)N)C(=O)N[C@H](C(=O)N[C@@H](Cc1ccc(O)cc1)C(=O)N[C@H](C(=O)N[C@@H](Cc1c[nH]cn1)C(=O)N1CCC[C@H]1C(=O)N[C@@H](Cc1ccccc1)C(=O)O)C(C)(C)SC)C(C)C (H-[Sar]RVY[Pen](Me)HPF-OH) | – | 60 mmHg | – | –
CC[C@H](C)[C@H](NC(=O)[C@@H]1CCCN1C(=O)[C@H](Cc1c[nH]cn1)NC(=O)[C@@H](NC(=O)[C@H](Cc1ccc(O)cc1)NC(=O)[C@@H](NC(=O)[C@H](CCCN=C(N)N)NC(=O)CNC)C(C)C)C(C)(C)SC)C(=O)O (H-[Sar]RVY[Pen](Me)HPI-OH) | 20 ng min-1 rat-1 | – | – | BP (Rattus norvegicus [4]): 12.5 mmHg; pA2 [5]: 9
CC[C@H](C)[C@H](NC(=O)[C@@H]1CCCN1C(=O)[C@H](Cc1c[nH]cn1)NC(=O)[C@H]1N(C(=O)[C@H](Cc2ccc(O)cc2)NC(=O)[C@@H](NC(=O)[C@H](CCCN=C(N)N)NC(=O)CNC)C(C)C)CSC1(C)C)C(=O)O (H-[Sar]RVY[Thz(5,5-Me2)]HPI-OH) | 25 ng min-1 rat-1 | – | – | BP (Rattus norvegicus [4]): 11.4 mmHg; pA2 [5]: 9
CC[C@H](C)[C@H](NC(=O)[C@@H]1CCCN1C(=O)[C@H](Cc1c[nH]cn1)NC(=O)[C@@H](NC(=O)[C@H](Cc1ccc(O)cc1)NC(=O)[C@@H](NC(=O)[C@H](CCCN=C(N)N)NC(=O)CNC)C(C)C)C(C)c1ccccc1)C(=O)O (some centres not stated) (H-[Sar]RVY[X1]HPI-OH) | 7.5 ng min-1 rat-1 | 10 mmHg | – | pA2 (Oryctolagus cuniculus [1]): 9.3
CNCC(=O)N[C@@H](CCCN=C(N)N)C(=O)N[C@H](C(=O)N[C@@H](Cc1ccc(O)cc1)C(=O)N1CSC(C)(C)[C@@H]1C(=O)N[C@@H](Cc1c[nH]cn1)C(=O)N1CCC[C@H]1C(=O)N[C@@H](Cc1ccccc1)C(=O)O)C(C)C (H-[Sar]RVY[dThz(5,5-Me2)]HPF-OH) | – | 100 mmHg | – | –
CC[C@H](C)[C@H](NC(=O)[C@@H]1CCCN1C(=O)[C@H](Cc1c[nH]cn1)NC(=O)[C@H](CCc1ccccc1)NC(=O)[C@H](Cc1ccc(O)cc1)NC(=O)[C@@H](NC(=O)[C@H](CCCN=C(N)N)NC(=O)CNC)C(C)C)C(=O)O (H-[Sar]RVY[hPhe]HPI-OH) | 20 ng min-1 rat-1 | 10 mmHg | – | pA2 (Oryctolagus cuniculus [1]): 7.75
H-NRVYAHPF-OH | – | – | 3% | –
H-NRVYLHPF-OH | – | – | 25% | –
H-NRVYPHPF-OH | – | – | – | Activity (Rattus norvegicus [12]): 10%
H-NRVYRHPF-OH | – | – | 0% | –
H-NRVYVHPF-OH [ANGIOTENSIN AMIDE] | – | – | – | Activity (Rattus norvegicus [12]): 100%
H-NRVYYHPF-OH | – | – | 0% | –
